Measured values from ChEMBL document CHEMBL1150895, “Spongiacidins A-D, new bromopyrrole alkaloids from hymeniacidon sponge” (J Nat Prod, 1998).

Columns and labels:
[1] = molecular target: Receptor tyrosine-protein kinase erbB-2 (Homo sapiens, UniProt P04626); test: Inhibition of c-erbB-2
[2] = molecular target: Cyclin-dependent kinase 4 (Homo sapiens, UniProt P11802); test: Inhibition of CDK4
Sequence of Cyclin-dependent kinase 4 (P11802 whole entry): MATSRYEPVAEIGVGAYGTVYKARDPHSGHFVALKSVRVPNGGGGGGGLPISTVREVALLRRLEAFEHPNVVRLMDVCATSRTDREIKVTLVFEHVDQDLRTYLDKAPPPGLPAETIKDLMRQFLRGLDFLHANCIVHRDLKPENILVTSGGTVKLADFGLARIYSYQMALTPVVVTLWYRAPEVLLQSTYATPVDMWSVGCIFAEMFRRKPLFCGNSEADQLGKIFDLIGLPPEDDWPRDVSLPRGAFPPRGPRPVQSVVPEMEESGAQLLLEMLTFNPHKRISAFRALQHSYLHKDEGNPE

Sequence of Receptor tyrosine-protein kinase erbB-2 (P04626 whole entry): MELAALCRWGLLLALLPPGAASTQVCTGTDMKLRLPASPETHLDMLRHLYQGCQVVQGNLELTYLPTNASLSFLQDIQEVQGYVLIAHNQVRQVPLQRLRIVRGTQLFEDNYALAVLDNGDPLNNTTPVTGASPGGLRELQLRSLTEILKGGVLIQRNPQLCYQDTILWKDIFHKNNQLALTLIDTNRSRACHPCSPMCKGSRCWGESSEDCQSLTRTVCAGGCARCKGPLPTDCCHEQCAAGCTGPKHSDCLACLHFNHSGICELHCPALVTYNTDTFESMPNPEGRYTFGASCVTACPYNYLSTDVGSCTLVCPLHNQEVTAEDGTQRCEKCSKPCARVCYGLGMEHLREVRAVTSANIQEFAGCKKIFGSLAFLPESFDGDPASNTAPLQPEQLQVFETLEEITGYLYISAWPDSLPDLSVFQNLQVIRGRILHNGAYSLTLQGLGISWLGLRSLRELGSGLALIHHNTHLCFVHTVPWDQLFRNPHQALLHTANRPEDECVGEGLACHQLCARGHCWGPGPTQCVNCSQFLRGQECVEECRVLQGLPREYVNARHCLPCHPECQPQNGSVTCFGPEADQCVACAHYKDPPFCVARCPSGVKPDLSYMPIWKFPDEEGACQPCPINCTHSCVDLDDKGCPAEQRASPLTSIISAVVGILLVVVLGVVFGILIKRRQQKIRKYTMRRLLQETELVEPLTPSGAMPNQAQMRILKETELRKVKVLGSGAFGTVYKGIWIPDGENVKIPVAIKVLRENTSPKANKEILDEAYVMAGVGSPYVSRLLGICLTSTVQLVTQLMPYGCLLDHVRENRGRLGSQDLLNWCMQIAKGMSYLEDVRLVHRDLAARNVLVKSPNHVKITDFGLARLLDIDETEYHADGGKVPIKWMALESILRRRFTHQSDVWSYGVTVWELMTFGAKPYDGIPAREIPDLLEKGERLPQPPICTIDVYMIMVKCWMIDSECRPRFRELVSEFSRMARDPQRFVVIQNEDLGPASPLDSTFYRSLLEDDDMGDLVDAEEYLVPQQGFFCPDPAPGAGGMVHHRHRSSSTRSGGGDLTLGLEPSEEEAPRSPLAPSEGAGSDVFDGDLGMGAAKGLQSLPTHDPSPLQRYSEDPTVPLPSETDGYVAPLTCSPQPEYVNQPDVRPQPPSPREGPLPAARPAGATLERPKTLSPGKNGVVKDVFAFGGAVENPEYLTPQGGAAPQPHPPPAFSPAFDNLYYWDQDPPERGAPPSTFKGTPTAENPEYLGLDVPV

Row | IC50 [1] [µM] | IC50 [2] [µM] | SMILES
1 | > 203 | > 203 | O=C1NC(=O)/C(=C2\CCNC(=O)c3[nH]ccc32)N1 [SPONGIACIDIN C]
2 | > 154 | > 154 | O=C1NC(=O)/C(=C2\CCNC(=O)c3[nH]c(Br)cc32)N1 [SPONGIACIDIN D]
